In patent US12022830B2, “Formulations of metal and ascorbic acid complexes, their obtaining and use” (INTERMAG SP. Z O.O., priority 2017, dated 2024):

How the values were obtained:
[1] = tested on: celery (Apium graveolens); test: Vanadyl ascorbate in cultivation of celery; type: in vivo; details: for root mass increase compared to plants from the control object: celery; for Chlorophyll / Dry mass of leaves / Dry mass of root / Flavonoids / Mass of celery leaves / Mass of celery root: sprayed three times
Description: Cultivation of celery (Apium graveolens) was carried out in a plastic tunnel in pots with a capacity of 3 l filled with peat substrate. Vanadyl ascorbate at a 1:2 molar ratio of V:Asc (VO(C6H7O6)2.2H2O) was applied three times during the entire cultivation in BBCH phases: 4-16 (4-6 leaves), 19-40 (10 and more leaves) and 42-44 (root development) in the form of fine-droplet spraying. Two vanadium doses of 5 g V/ha (0.001%) and 10 g V/ha (0.002%) were used. The experiment was performed in a random block system, combinations were drawn in 4 blocks. There were 20 celery plants for each combination.
The mass of celery leaves has been increased both by the application of vanadium in the amount of 5 g and 10 g/ha. […] For a smaller dose, root mass has increased by 23%, while for a dose of 10 g V/ha by 11% compared to plants from the control object. A dose of 5 g V/ha positively influenced the quality parameters of celery, the dry mass of leaves, the content of chlorophyll and flavonoids have increased. However, a dose of 10 g V/ha contributed to the increase in dry mass of leaves and to the increase in content of flavonoids. The results of this experiment indicate a biostimulatory effect of low doses of vanadium on the utility yield increase of vegetable plants and its qualitative parameters.

[2] = tested on: Radish (Raphanus sativus) of Ronda type; test: Vanadyl ascorbate in cultivation of radish; type: in vivo; details: foliar twice, 0.004% V, total 20 g V/ha
Description: Radish (Raphanus sativus) of Ronda type was cultivated in a plastic tunnel in a peat substrate. Vanadyl ascorbate at a 1:2 molar ratio of V:Asc (VO(C6H7O6)2.2H2O) was applied in the form of foliar spraying twice during the entire cultivation, vanadium concentration in the working liquid was 0.004% V. In two applications, the total vanadium dose per hectare was 20 g V/ha. The experiment was performed in a random block system, combinations were drawn in 4 blocks. There were 20 plants for each combination.
Foliar application of vanadyl ascorbate VO(C6H7O6)2.2H2O has increased the mass of radish root by 12% compared to the control plants. […] Furthermore, in vanadium treated plants, the content of flavonoids responsible for protecting plant cells from oxidative stress, which is caused, among others, by through drought, has increased almost twice as compared to the control.

[3] = tested on: fusarium foot and root rot; test: Fusarium foot and root rot on wheat; type: in vivo; details: wheat of Figura type, initial studies, analogous to the titanium complex
[4] = tested on: diseases affecting the plant spikes; test: Vanadyl ascorbate on wheat of Figura type, diseases affecting the plant spikes; type: in vivo; details: initial studies, analogous to the titanium complex
From the text: In the case of diseases attacking spikes, on the control combination, infestation by Cladosporium herbarum at 20%, by Septoria nodorum at 10% and by Gibberella avenacea at 10% were found. On sprayed plants, infestations were 1%, 1% and 0% respectively.

[5] = tested on: iceberg lettuce; test: Vanadyl ascorbate in cultivation of iceberg lettuce, head mass, chlorophyll, flavonoids, nutrients; type: in vivo, Lactuca sativa; details: foliar twice, total 10 g V/ha
From the text: Iceberg cabbage lettuce (Lactuca sativa) of Rubette type was cultivated in a plastic tunnel in pots with a capacity of 3 l filled with a peat substrate. Titanil ascorbate at a 1:2 molar ratio of Ti: Asc (TiO(C6H7O6)2.2H2O) and liquid titanil ascorbate at a 1.5:1 molar ratio of (obtained in situ—according to the method of patent specification PL 163688 or PL 214628) were applied in a foliar manner twice during the entire cultivation, the concentration of titanium in the working liquid for both formulations was 0.00085% Ti. In two applications, the total titanium dose per hectare was 3.4 g Ti/ha. The experiment was performed in a random block system, combinations were drawn in 4 blocks. There were 20 lettuce plants for each combination.
The experiment was performed analogously to the titanium complex at a 1:2 or 1.5:1 (Example 20) molar ratio of Ti:ascorbic acid. VO(C6H7O6)2.2H2O was used in the form of foliar spraying twice, vanadium concentration in the working liquid was 0.001% V. In two applications, the total micronutrient dose per hectare was 10 g V/ha.
Foliar application of VO(C6H7O6)2.2H2O increased the mass of the lettuce head by 14% compared to the control. Furthermore, vanadium ascorbate at a 1:2 molar ratio of V:Asc increased the chlorophyll content. Also, differences were found in the level of flavonoid accumulation between the control object and the combination treated with VO(C6H7O6)2.2H2O.

[6] = Study of solution stability for a given complex; type: physicochemical; details: complexes in the form of solutions

O.O.O=C1OC(C(O)CO)C([O-])=C1O.O=C1OC(C(O)CO)C([O-])=C1O.[O]=[V+2] (stereo not drawn) [VO(C6H7O6)2•2H2O, vanadyl ascorbate]
root mass increase compared to plants from the control object ([1]; dose of 5 g V/ha): 23% | root mass increase compared to plants from the control object ([1]; dose of 10 g V/ha): 11% | Chlorophyll ([1]; dose of 5 g V/ha (0.001%)): 35.0 μg/cm^2 | Dry mass of leaves ([1]; dose of 5 g V/ha (0.001%)): 8.9% | Dry mass of root ([1]; dose of 5 g V/ha (0.001%)): 2.9% | Flavonoids ([1]; dose of 5 g V/ha (0.001%)): 0.77 μg/cm^2 | Mass of celery leaves ([1]; dose of 5 g V/ha (0.001%)): 320.3 g | Mass of celery root ([1]; dose of 5 g V/ha (0.001%)): 90.7 g | Chlorophyll ([1]; dose of 10 g V/ha (0.002%)): 32.0 μg/cm^2 | Dry mass of leaves ([1]; dose of 10 g V/ha (0.002%)): 9.5% | Dry mass of root ([1]; dose of 10 g V/ha (0.002%)): 3.1% | Flavonoids ([1]; dose of 10 g V/ha (0.002%)): 0.72 μg/cm^2 | Mass of celery leaves ([1]; dose of 10 g V/ha (0.002%)): 317.3 g | Mass of celery root ([1]; dose of 10 g V/ha (0.002%)): 78.5 g | Chlorophyll [2]: 19.1 μg/cm^2 | Dry mass of root [2]: 4.8% | Flavonoids [2]: 0.88 μg/cm^2 | Mass of radish root [2]: 19.5 g | increase of the content of flavonoids compared to the control [2]: almost twice | increase of the mass of radish root compared to the control plants [2]: 12% | effect on the elimination of symptoms caused by fusarium foot and root rot [3]: positive effect | effect on the elimination of symptoms caused by diseases affecting the plant spikes [4]: positive effect | Chlorophyll ([5]; iceberg lettuce, 0.001% V): 29.6 μg/cm^2 | Dry mass ([5]; iceberg lettuce, 0.001% V): 6.85% | Flavonoids ([5]; iceberg lettuce, 0.001% V): 0.29 μg/cm^2 | Mass of lettuce head ([5]; iceberg lettuce, 0.001% V): 78.2 g | increase of the mass of the lettuce head compared to the control ([5]; iceberg lettuce, 0.001% V): 14% | Ca content ([5]; lettuce, g/kg d.c.): 18.17 g/kg | K content ([5]; lettuce, g/kg d.c.): 21.84 g/kg | Mg content ([5]; lettuce, g/kg d.c.): 4.92 g/kg | P content ([5]; lettuce, g/kg d.c.): 3.42 g/kg | S content ([5]; lettuce, g/kg d.c.): 2.69 g/kg | stability of the solution among the complexes [6]: most stable
